Assay results: patent publication US20100056443A1, “RADIOPHARMACEUTICAL TO BE USED IN DISTINCTION BETWEEN INFLAMMATIONS AND INFECTIONS IN ORTHOPAEDIC IMPLANTS” (priority 2006, published 2010)
No end group written: not given here.

Experiments:
[1] = tested on: Gram-positive and Gram-negative bacteria; settings: cited from earlier work
[2] = tested on: S. cerevisiae; settings: weak antimicrobial activity; cited from earlier work
[3] = tested on: P. aeruginosa; settings: strong antimicrobial activity; cited from earlier work
[4] = tested on: S. Carnosous; settings: strong antimicrobial activity; cited from earlier work
[5] = tested on: Escherichia Coli; settings: cited from earlier work
[6] = tested on: S. pneumoniae; settings: weak antimicrobial activity; cited from earlier work
[7] = tested on: S. Aureus; settings: weak antimicrobial activity; cited from earlier work
[8] = tested on: B. cepacea; settings: weak antimicrobial activity; cited from earlier work
[9] = tested on: E. Coli; assay: In vitro control of the biological activity of radiomarked HBD-3 (colony count on agar plates); assay type: cell-based; settings: for Number of CFU existing in the plates: E. Coli
Experimental: (§1) The control was performed as described by Harwing et al. Methods Enzymology 1994, 236: 160-172. In particular, the aliquote portion (20 μl) of a bacterial suspension of S. Aureus containing 5×10^6 CFU/ml was incubated (2 hours at 37° C.) with 200 μl of radiomarked HBD-3 (1.2 μg) and 75 μl of a suitable dilution of a culture broth (Tryptic Soy Broth). After incubation, two samples with dilution factors equalling to 1:1345 and 1:13450 were derived from the mixture. Twentyfive μl of these samples were collected and sown with sterile rod onto plates containing a culture medium (agar plate). After incubation for 24 hours at 37° C. the colonies were counted. A value higher than 800 CFU was considered not assessable due to the difficulty in counting.
(§2) An analogous experiment was carried out, under the same conditions, by using 200 μl of sterile buffer instead of the radiomarked HBD-3.
Both tests illustrated above, aimed at testing the sensibility of S. Aureus to the radiomarked HBD-3, were repeated, under identical conditions, with E. Coli with the same purposes. The results are shown in Table III and in FIGS. 1 and 2.

[10] = tested on: infection by S. Aureus; assay: Infection detection by 99mTc-HBD-3 in experimental animal model (tissue counting: infection vs sterile inflammation vs normal muscle); assay type: in vivo, Wistar male rats
Experimental: Tissue samples were collected from the infection and inflammation seats after 1, 3 and 5 hours as from the injection of the tracer for each group of rats. Such samples were counted in a well-like counter. The countings expressed in terms of cpm/g of tissue were compared to the countings of properly collected normal muscle tissue samples. […] The results have been interpreted as indicating a specific bond of radiomarked recombinant HBD-3 with the S. Aureus.
The rats Nr. 3, 6 and 9 had received a weight dose in marked product higher than the rats Nr. 2, 5 and 8 which, in turn, had received a dose of the same product higher than the rats 1, 4 and 7. As it can be seen, a greater ratio between countings measured onto the abscess seat and those recorded onto the inflammation seat and onto the normal muscle corresponds to a higher dose of radiomarked peptide. Such run lets assuming a dose-depending ratio of dependency of the radiopharmaceutical captation.

[11] = tested on: S. Aureus; assay: In vitro control of the biological activity of radiomarked HBD-3 (colony count on agar plates); assay type: cell-based; settings: for Number of CFU existing in the plates: S. Aureus, 1.2 μg radiomarked HBD-3, 2 hours at 37° C.
Experimental: as §1, §2

[12] = tested on: Gram-negative bacteria; settings: in words; HBD-3: P. Aeruginosa, E. Coli; cited from earlier work
[13] = tested on: Gram-positive bacteria (Streptococcus pyogenes, S. Aureus); settings: in words; including multi-resistant S. aureus and vancomycin-resistant Enterococcus Faecium; cited from earlier work
[14] = tested on: yeasts; settings: in words; b28: yeast C. albicans; cited from earlier work
[15] = dilution 1:1345, >800 CFU not assessable

Q: For “HNP-1: human α-defensin inside neutrophils”, which Bactericide concentrations ([1]; Gram-positive and Gram-negative bacteria) is on record?
A: greater than 100 μl;

Q: For “HBD-4: human β-defensin, constitutive expression (EFELDRICGYGTARCRKKCRSQEYRIGRCPNTYACCLRKWDESLLNRTKP; UniProt Q8WTQ1 23-72, looked up)”, which MIC [2] is on record?
A: (MIC > 100 μg/ml);

Q: And the MIC [3]?
A: (MIC = 4.1 μg/ml)

Q: What about the MIC [4] of the same substance?
A: (MIC = 4.5 μg/ml)

Q: What about the MIC ([5]; weak antimicrobial activity) of the same substance?
A: (MIC > 100 μg/ml);

Q: And the MIC [6]?
A: (MIC > 100 μg/ml);

Q: What about the MIC [7] of the same substance?
A: (MIC > 100 μg/ml);

Q: And the MIC [8]?
A: (MIC > 100 μg/ml);

Q: Which “Number of CFU existing in the plates” value [9, 15] does the source give for “radiomarked HBD-3: recombinant human β-defensin-3 marked with 99mTc+ exa-coordinated with 3 molecules of CO and H2O (GIINTLQKYYCRVRGGRCAVLSCLPKEEQIGKCSTRGRKCCRRKK; cysteine pairing not given here; also: 99mTc(CO)3 label, site not given here; UniProt P81534 23-67, looked up)” here?
A: >800 CFU

Q: And the “Number of CFU existing in the plates” value ([9]; dilution 1:13450)?
A: 310 CFU

Q: What about the “biological activity of HBD-3 after marking with 99mTc” value ([9]; towards E. Coli (lower than towards S. Aureus)) of the same substance?
A: maintained biological activity

Q: What about the “tracer's captation in the infection seats relative to the inflammation seats” value ([10]; rats, 5 hours as from the tracer's injection, cpm/g of tissue) of the same substance?
A: 3 times

Q: And the “fixation of tracer, inflammatory lesions versus normal muscles” value ([10]; rats, in the whole experiment (1, 3 and 5 hours))?
A: no significant fixation differences

Q: What about the “tracer's captation, infection seats versus inflammation seats” value ([10]; rats, one hour as from the injection) of the same substance?
A: no significant differences

Q: And the “dependency of the radiopharmaceutical captation ratio (abscess vs inflammation seat and normal muscle) on dose” value ([10]; single rats 1-9, doses from 1,6 to 5,2 μg)?
A: dose-depending

Q: What about the “Number of CFU existing in the plates” value [11, 15] of the same substance?
A: 348 CFU

Q: What about the “Number of CFU existing in the plates” value ([11]; dilution 1:13450) of the same substance?
A: 17 CFU

Q: And the “biological activity of HBD-3 after marking with 99mTc” value ([11]; towards S. Aureus (greater than towards E. Coli))?
A: maintained biological activity

Q: Which Activity ([1]; in words, relative to HNP-1) does the source give for “HNP-2: truncated human α-defensin (CYCRIPACIAGERRYGTCIYQGRLWAFCC; Neutrophil defensin 2; UniProt P59665 66-94, looked up)” here?
A: Like HPN-1

Q: With “HBD-1: human β-defensin, constitutive expression (DHYNCVSSGGQCLYSACPIFTKIQGTCYRGKAKCCK; UniProt P60022 33-68, looked up)” as the substance, how does the Activity ([5]; at micro-molecular concentrations) read?
A: Bactericide*

Q: For “HBD-3: human beta-defensin-3, antimicrobial peptide weighing 5,15 kDa (GIINTLQKYYCRVRGGRCAVLSCLPKEEQIGKCSTRGRKCCRRKK; Beta-defensin 103; UniProt P81534 23-67, looked up)”, which Activity [12] is on record?
A: Bactericide

Q: And the Activity [13]?
A: Bactericide

Q: What about the Activity [14] of the same substance?
A: Bactericide
